The results in this text go back to patent US20070128217A1 (priority 2003, published 2007).

Test [1] has as its system rabbit serum obtained by immunizing a rabbit with the SARS-CoV strain Frankfurt 1. It is filed as binding. More on the design: Binding of a rabbit serum to linear peptides / Binding of a rabbit serum to looped peptides / Rabbit serum linear peptides / Rabbit serum looped peptides / Binding of a rabbit serum to linear peptides of protein N of SARS-CoV Urbani (Rabbit serum linear peptides) / Binding of a rabbit serum to looped/cyclic peptides of protein N of SARS-CoV Urbani (Rabbit serum looped peptides): unit not given here.

Test [2] deals with antibodies in sera from SARS patients (sera 1a, 1b, 2, 6, 37, 62, London, SARS-yellow, SARS-green). The format is binding, human. More on the design: Binding of serum 6 to linear peptides of protein X1 of SARS-CoV Urbani / Binding of serum 37 to linear peptides of protein X1 of SARS-CoV Urbani / Binding of serum 6 to looped/cyclic peptide (PEPSCAN-ELISA) / Binding of serum 37 to looped/cyclic peptide (PEPSCAN-ELISA) / Binding of serum 37 to looped/cyclic peptides of protein X1 of SARS-CoV Urbani / Binding of serum 6 to linear peptides of protein X2 / Binding of serum 37 to linear peptides of protein X2 / Binding of serum 37 to looped/cyclic peptides of protein X2 of SARS-CoV Urbani / Binding of serum 6 to linear peptides of protein M of SARS-CoV Urbani / Binding of serum 37 to linear peptides of protein M of SARS-CoV Urbani / Binding of serum 6 to looped/cyclic peptides of protein M of SARS-CoV Urbani / Binding of serum 37 to looped/cyclic peptides of protein M of SARS-CoV Urbani / Binding of serum 6 to linear peptides of protein X3 of SARS-CoV Urbani / Binding of serum 37 to linear peptides of protein X3 of SARS-CoV Urbani / Binding of serum 37 to looped/cyclic peptides of protein X3 of SARS-CoV Urbani / Binding of serum 6 to linear peptides of protein X4 of SARS-CoV Urbani / Binding of serum 37 to linear peptides of protein X4 of SARS-CoV Urbani / Binding of serum 37 to looped/cyclic peptides of protein X4 of SARS-CoV Urbani / Binding of serum 6 to linear peptides of protein X5 of SARS-CoV Urbani / Binding of serum 37 to linear peptides of protein X5 of SARS-CoV Urbani / Binding of serum 37 to looped/cyclic peptides of protein X5 of SARS-CoV Urbani / Binding of serum 6 to linear peptides of protein N of SARS-CoV Urbani / Binding of serum 37 to linear peptides of protein N of SARS-CoV Urbani / Binding of serum 6 to linear peptide (PEPSCAN-ELISA) / Binding of serum 1a to looped/cyclic peptides of protein N of SARS-CoV Urbani / Binding of serum 1b to looped/cyclic peptides of protein N of SARS-CoV Urbani / Binding of serum 2 to looped/cyclic peptides of protein N of SARS-CoV Urbani / Binding of serum 6 to looped/cyclic peptides of protein N of SARS-CoV Urbani / Binding of serum 37 to looped/cyclic peptides of protein N of SARS-CoV Urbani / Binding of serum 62 to looped/cyclic peptides of protein N of SARS-CoV Urbani / Binding of serum London to looped/cyclic peptides of protein N of SARS-CoV Urbani / Binding of serum SARS-green to looped/cyclic peptides of protein N of SARS-CoV Urbani: unit not given here.

Regarding QSATKIIALNKRWQL, in test [1], the “Recognition of the peptide by the rabbit serum” value (“Recognition of the peptide” below) is recorded as “recognized”. In test [2], the “Binding of serum 1a to linear peptides of protein X1 of SARS-CoV Urbani” value came to 0.8, the “Binding of serum 1a to looped/cyclic peptide (PEPSCAN-ELISA)” value came out at 0.4, the “Binding of serum 1b to linear peptides of protein X1 of SARS-CoV Urbani” value is recorded as 0.7 and the “Binding of serum 1b to looped/cyclic peptide (PEPSCAN-ELISA)” value is 0.4. Also, in test [2], the “Binding of serum 2 to linear peptides of protein X1 of SARS-CoV Urbani” value stood at 0.7, the “Binding of serum 2 to looped/cyclic peptide (PEPSCAN-ELISA)” value is listed as 0.5, the “Binding of serum 6 to linear peptides of protein X1 of SARS-CoV Urbani” value amounted to 0.7 and the “Binding of serum 6 to looped/cyclic peptide (PEPSCAN-ELISA)” value was found to be 0.6. In test [2], the “Binding of serum 37 to linear peptides of protein X1 of SARS-CoV Urbani” value turned out to be 0.7, the “Binding of serum 37 to looped/cyclic peptide (PEPSCAN-ELISA)” value turned out to be 0.6, the “Binding of serum 62 to linear peptides of protein X1 of SARS-CoV Urbani” value was 0.8 and the “Binding of serum 62 to looped/cyclic peptide (PEPSCAN-ELISA)” value came to 0.6. In test [2], the “Binding of serum London to linear peptides of protein X1 of SARS-CoV Urbani” value is recorded as 0.4, the “Binding of serum London to looped/cyclic peptide (PEPSCAN-ELISA)” value came out at 0.4, the “Binding of serum SARS-green to linear peptides of protein X1 of SARS-CoV Urbani” value is listed as 0.4 and the “Binding of serum SARS-green to looped/cyclic peptide (PEPSCAN-ELISA)” value came out at 0.4. In test [2], the “Binding of serum SARS-yellow to linear peptides of protein X1 of SARS-CoV Urbani” value amounted to 0.5 and the “Binding of serum SARS-yellow to looped/cyclic peptide (PEPSCAN-ELISA)” value came to 0.4.

RTLSYYKLGASQRVG: in test [1], the “Rabbit serum linear peptides” value is on record as 0.5 and the “Rabbit serum looped peptides” value turned out to be 1.0. In test [2], the “Binding of serum 1a to linear peptides of protein M of SARS-CoV Urbani” value stood at 0.7, the “Binding of serum 1a to looped/cyclic peptides of protein M of SARS-CoV Urbani” value is reported as 0.8, the “Binding of serum 1b to linear peptides of protein M of SARS-CoV Urbani” value came to 0.6 and the “Binding of serum 1b to looped/cyclic peptides of protein M of SARS-CoV Urbani” value came to 0.5. In test [2], the “Binding of serum 2 to linear peptides of protein M of SARS-CoV Urbani” value amounted to 0.7, the “Binding of serum 2 to looped/cyclic peptides of protein M of SARS-CoV Urbani” value was 0.7, the “Binding of serum 6 to linear peptides of protein M of SARS-CoV Urbani” value is given as 0.8 and the “Binding of serum 6 to looped/cyclic peptides of protein M of SARS-CoV Urbani” value is recorded as 1.5. In addition, in test [2], the “Binding of serum 37 to linear peptides of protein M of SARS-CoV Urbani” value is given as 0.5, the “Binding of serum 62 to linear peptides of protein M of SARS-CoV Urbani” value stood at 0.5, the “Binding of serum London to linear peptides of protein M of SARS-CoV Urbani” value is 0.3 and the “Binding of serum London to looped/cyclic peptides of protein M of SARS-CoV Urbani” value was 1.0. In addition, in test [2], the “Binding of serum SARS-green to linear peptides of protein M of SARS-CoV Urbani” value is given as 0.5, the “Binding of serum SARS-green to looped/cyclic peptides of protein M of SARS-CoV Urbani” value is 0.4, the “Binding of serum SARS-yellow to linear peptides of protein M of SARS-CoV Urbani” value is on record as 0.4 and the “Binding of serum SARS-yellow to looped/cyclic peptides of protein M of SARS-CoV Urbani” value was 0.8.

For SATKIIALNKRWQLA, the “Recognition of the peptide” value in test [1] is listed as “recognized”. Moreover, in test [2], the “Binding of serum 1a to linear peptides of protein X1 of SARS-CoV Urbani” value is recorded as 0.8, the “Binding of serum 1a to looped/cyclic peptide (PEPSCAN-ELISA)” value is reported as 1.2, the “Binding of serum 1b to linear peptides of protein X1 of SARS-CoV Urbani” value was 0.6 and the “Binding of serum 1b to looped/cyclic peptide (PEPSCAN-ELISA)” value is on record as 0.8. In test [2], the “Binding of serum 2 to linear peptides of protein X1 of SARS-CoV Urbani” value is listed as 0.6, the “Binding of serum 2 to looped/cyclic peptide (PEPSCAN-ELISA)” value worked out at 1.2, the “Binding of serum 6 to linear peptides of protein X1 of SARS-CoV Urbani” value came to 0.7 and the “Binding of serum 6 to looped/cyclic peptide (PEPSCAN-ELISA)” value is 0.9. Besides, in test [2], the “Binding of serum 37 to linear peptides of protein X1 of SARS-CoV Urbani” value is 0.7, the “Binding of serum 37 to looped/cyclic peptide (PEPSCAN-ELISA)” value amounted to 1.0, the “Binding of serum 62 to linear peptides of protein X1 of SARS-CoV Urbani” value was 0.8 and the “Binding of serum 62 to looped/cyclic peptide (PEPSCAN-ELISA)” value was determined as 1.5. In test [2], the “Binding of serum London to linear peptides of protein X1 of SARS-CoV Urbani” value stood at 0.4, the “Binding of serum London to looped/cyclic peptide (PEPSCAN-ELISA)” value is reported as 0.5, the “Binding of serum SARS-green to linear peptides of protein X1 of SARS-CoV Urbani” value was 0.3 and the “Binding of serum SARS-green to looped/cyclic peptide (PEPSCAN-ELISA)” value was found to be 1.0. Besides, in test [2], the “Binding of serum SARS-yellow to linear peptides of protein X1 of SARS-CoV Urbani” value is reported as 0.5 and the “Binding of serum SARS-yellow to looped/cyclic peptide (PEPSCAN-ELISA)” value is on record as 0.9.

As for TKIIALNKRWQLALY, the “Recognition of the peptide” value in test [1] is reported as “recognized”. Besides, in test [2], the “Binding of serum 1a to linear peptides of protein X1 of SARS-CoV Urbani” value is recorded as 0.7, the “Binding of serum 1a to looped/cyclic peptide (PEPSCAN-ELISA)” value stood at 0.6, the “Binding of serum 1b to linear peptides of protein X1 of SARS-CoV Urbani” value was determined as 0.5 and the “Binding of serum 1b to looped/cyclic peptide (PEPSCAN-ELISA)” value came to 0.4. Besides, in test [2], the “Binding of serum 2 to linear peptides of protein X1 of SARS-CoV Urbani” value was found to be 0.6, the “Binding of serum 2 to looped/cyclic peptide (PEPSCAN-ELISA)” value came out at 0.5, the “Binding of serum 6 to linear peptides of protein X1 of SARS-CoV Urbani” value came to 1.0 and the “Binding of serum 6 to looped/cyclic peptide (PEPSCAN-ELISA)” value was found to be 0.5. Besides, in test [2], the “Binding of serum 37 to linear peptides of protein X1 of SARS-CoV Urbani” value came to 0.7, the “Binding of serum 37 to looped/cyclic peptide (PEPSCAN-ELISA)” value stood at 0.6, the “Binding of serum 62 to linear peptides of protein X1 of SARS-CoV Urbani” value was 0.7 and the “Binding of serum 62 to looped/cyclic peptide (PEPSCAN-ELISA)” value came to 0.6. In test [2], the “Binding of serum London to linear peptides of protein X1 of SARS-CoV Urbani” value was found to be 0.3, the “Binding of serum London to looped/cyclic peptide (PEPSCAN-ELISA)” value stood at 0.3, the “Binding of serum SARS-green to linear peptides of protein X1 of SARS-CoV Urbani” value stood at 0.2 and the “Binding of serum SARS-green to looped/cyclic peptide (PEPSCAN-ELISA)” value was found to be 0.3. In test [2], the “Binding of serum SARS-yellow to linear peptides of protein X1 of SARS-CoV Urbani” value is recorded as 0.5 and the “Binding of serum SARS-yellow to looped/cyclic peptide (PEPSCAN-ELISA)” value is 0.5.

As for TTVYHITVSQIQLSL, in test [1], the “Binding of a rabbit serum to linear peptides” value was 0.7 and the “Binding of a rabbit serum to looped peptides” value was determined as 0.4. Further, in test [2], the “Binding of serum 1a to linear peptides of protein X2” value came to 0.7, the “Binding of serum 1a to looped/cyclic peptides of protein X2 of SARS-CoV Urbani” value amounted to 0.5, the “Binding of serum 1b to linear peptides of protein X2” value stood at 0.5 and the “Binding of serum 1b to looped/cyclic peptides of protein X2 of SARS-CoV Urbani” value is listed as 0.5. In test [2], the “Binding of serum 2 to linear peptides of protein X2” value is listed as 0.5, the “Binding of serum 2 to looped/cyclic peptides of protein X2 of SARS-CoV Urbani” value turned out to be 0.3, the “Binding of serum 6 to linear peptides of protein X2” value is 0.5 and the “Binding of serum 6 to looped/cyclic peptides of protein X2 of SARS-CoV Urbani” value came out at 0.3. Further, in test [2], the “Binding of serum 37 to linear peptides of protein X2” value stood at 0.7, the “Binding of serum 37 to looped/cyclic peptides of protein X2 of SARS-CoV Urbani” value is given as 0.4, the “Binding of serum 62 to linear peptides of protein X2” value was 0.6 and the “Binding of serum 62 to looped/cyclic peptides of protein X2 of SARS-CoV Urbani” value came out at 0.5. Besides, in test [2], the “Binding of serum London to linear peptides of protein X2” value was found to be 0.4, the “Binding of serum London to looped/cyclic peptides of protein X2 of SARS-CoV Urbani” value worked out at 0.2, the “Binding of serum SARS-green to linear peptides of protein X2” value turned out to be 0.1 and the “Binding of serum SARS-green to looped/cyclic peptides of protein X2 of SARS-CoV Urbani” value is listed as 0.2. Moreover, in test [2], the “Binding of serum SARS-yellow to linear peptides of protein X2” value is recorded as 0.8 and the “Binding of serum SARS-yellow to looped/cyclic peptides of protein X2 of SARS-CoV Urbani” value is 0.4.
